Our source for the Normalized microsomal stability values is patent US8541462B2, “Tetrahydrocarbazole derivatives as ligands of G-protein coupled receptors” (AEterna Zentaris GmbH, priority 2007, dated 2013).

Structures are written as SMILES.

A short description of the data set: Metabolic stability testing in liver microsomes. The note with it: mixed-gender human liver microsomes, 1 mg microsomal protein/mL, initial concentration 10 μM, 60 minutes at 37° C.; WO 2006/005484-substance 7 = 100%. Type of data set: in vitro ADME. The procedure:
Subcellular fractions of different tissues can be prepared easily by ultracentrifugation. Most commonly these are prepared from the liver of animals and human donors to gain information about the potential hepatic clearance of compounds (first-pass elimination of drugs). Human or animal (e.g. dog, mouse, rat) subcellular fraction like liver microsomes, or possibly the fraction called S9 have therefore become a very commonly and widely used as an in vitro model to investigate mainly cytochrome P450 dependent phase I (but also phase II) metabolism that takes place in the liver.
In order to reflect the standard proportion of the enzymes in human and animal livers, liver microsomes are usually pooled from a number of […] of the same sex (or mixed-gender). By supplementing the liver microsomes with relevant cofactors and other components it is possible to investigate and distinguish between CYPs, flavin-containing monooxygenase (FMO) and UDP-glucuronosyltransferase (UGT) activities.
Selected compounds of the invention were tested for their stability in mixed-gender human liver microsomes and compared to pertinent prior art compounds.
Under the test conditions applied (1 mg microsomal protein/mL, initial concentration of 10 μM, and incubation for 60 minutes at 37° C.) the following normalized results were obtained.
`CCC(C)[C@H](NC(=O)Cc1ccccc1F)C(=O)N[C@]1(C(=O)N[C@H](C(=O)NNC(=O)c2ccccc2)C(C)CC)CCc2[nH]c3c(C(F)(F)F)cccc3c2C1` (stereo partly drawn) [compound 242, (R)-3-{(S)-2-[2-(2-Fluoro-phenyl)-acetylamino]-3-methyl-pentanoylamino}-8-trifluoromethyl-2,3,4,9-tetrahydro-1H-carbazole-3-carboxylic acid [(S)-1-(N′-benzoyl-hydrazinocarbonyl)-2-methyl-butyl]-amide] yielded a Normalized microsomal stability of 1322%.

In the case of `CC[C@H](C)[C@H](NC(=O)Cc1ccccc1F)C(=O)N[C@]1(C(=O)N[C@H](c2nc(-c3ccccc3)cs2)[C@@H](C)CC)CCc2[nH]c3c(C(F)(F)F)cccc3c2C1` [compound 249, (R)-3-{(2S,3S)-2-[2-(2-Fluoro-phenyl)-acetylamino]-3-methyl-pentanoylamino}-8-trifluoromethyl-2,3,4,9-tetrahydro-1H-carbazole-3-carboxylic acid [(1S,2S)-2-methyl-1-(4-phenyl-thiazol-2-yl)-butyl]-amide], the Normalized microsomal stability turned out to be 1580%.

`CCNC(=O)Nc1nnc([C@@H](NC(=O)[C@]2(NC(=O)[C@@H](NC(=O)Cc3ccccc3F)C(C)CC)CCc3[nH]c4c(C(F)(F)F)cccc4c3C2)C(C)CC)o1` (stereo partly drawn) [Compound 31, (S)-3-{(S)-2-[2-(2-Fluoro-phenyl)-acetylamino]-3-methyl-pentanoylamino}-8-trifluoromethyl-2,3,4,9-tetrahydro-1H-carbazole-3-carboxylic acid {(S)-1-[5-(3-ethyl-ureido)-[1,3,4]oxadiazol-2-yl]-2-methyl-butyl}-amide] registered a Normalized microsomal stability of 276%.

In the case of `CCC(C)[C@H](NC(=O)Cc1ccccc1F)C(=O)N[C@]1(C(=O)N[C@H](CNC(=O)NCc2ccncc2)C(C)CC)CCc2[nH]c3c(C(F)(F)F)cccc3c2C1` (stereo partly drawn) [compound 190, (R)-3-{(S)-2-[2-(2-Fluoro-phenyl)-acetylamino]-3-methyl-pentanoylamino}-8-trifluoromethyl-2,3,4,9-tetrahydro-1H-carbazole-3-carboxylic acid [(S)-2-methyl-1-(3-pyridin-4-ylmethyl-ureidomethyl)-butyl]-amide], the Normalized microsomal stability is given as 665%.

`CC[C@H](C)[C@H](NC(=O)Cc1ccccc1F)C(=O)N[C@]1(C(=O)N[C@H](c2nc(C(=O)O)cs2)[C@@H](C)CC)CCc2[nH]c3c(C(F)(F)F)cccc3c2C1` [compound 256, 2-{(1S,2S)-1-[((R)-3-{(2S,3S)-2-[2-(2-Fluoro-phenyl)-acetylamino]-3-methyl-pentanoylamino}-8-trifluoromethyl-2,3,4,9-tetrahydro-1H-carbazole-3-carbonyl)-amino]-2-methyl-butyl}-thiazole-4-carboxylic acid] registered a Normalized microsomal stability of 1194%.

In turn, `CCC(C)[C@H](NC(=O)Cc1ccccc1F)C(=O)N[C@]1(C(=O)N[C@H](C(=O)NNc2ccccc2)C(C)CC)CCc2[nH]c3c(C(F)(F)F)cccc3c2C1` (stereo partly drawn) [compound 144, (R)-3-{(S)-2-[2-(2-Fluoro-phenyl)-acetylamino]-3-methyl-pentanoylamino}-8-trifluoromethyl-2,3,4,9-tetrahydro-1H-carbazole-3-carboxylic acid [(S)-2-methyl-1-(N′-phenyl-hydrazinocarbonyl)-butyl]-amide] came in with a Normalized microsomal stability of 1352%.

Molecule `CCC(C)[C@H](NC(=O)Cc1cccnc1)C(=O)N[C@]1(C(=O)N[C@H](C(N)=S)C(C)CC)CCc2[nH]c3c(C(F)(F)F)cccc3c2C1` (stereo partly drawn) [compound 230, (R)-3-[(S)-3-Methyl-2-(2-pyridin-3-yl-acetylamino)-pentanoylamino]-8-trifluoromethyl-2,3,4,9-tetrahydro-1H-carbazole-3-carboxylic acid ((S)-2-methyl-1-thiocarbamoyl-butyl)-amide] had a Normalized microsomal stability of 1948%.

Turning to `CCC(C)[C@H](NC(=O)Cc1ccccc1F)C(=O)N[C@]1(C(=O)N[C@H](C(=S)NCCN2CCOCC2)C(C)CC)CCc2[nH]c3c(C(F)(F)F)cccc3c2C1` (stereo partly drawn) [Compound 54, (R)-3-{(S)-2-[2-(2-Fluoro-phenyl)-acetylamino]-3-methyl-pentanoylamino}-8-trifluoromethyl-2,3,4,9-tetrahydro-1H-carbazole-3-carboxylic acid [(S)-2-methyl-1-(2-morpholin-4-yl-ethylthiocarbamoyl)-butyl]-amide], the Normalized microsomal stability was 611%.

The molecule `CCC(C)[C@H](NC(=O)NCc1ccccc1F)C(=O)N[C@]1(C(=O)N[C@H](C(=O)NNc2ccccc2)C(C)CC)CCc2[nH]c3c(C(F)(F)F)cccc3c2C1` (stereo partly drawn) [compound 244, (R)-3-{(S)-2-[3-(2-Fluoro-benzyl)-ureido]-3-methyl-pentanoylamino}-8-trifluoromethyl-2,3,4,9-tetrahydro-1H-carbazole-3-carboxylic acid [(S)-2-methyl-1-(N′-phenyl-hydrazinocarbonyl)-butyl]-amide] came in with a Normalized microsomal stability of 1096%.

In the case of `CCNC(=S)NC[C@@H](NC(=O)[C@@]1(NC(=O)[C@@H](NC(=O)Cc2ccccc2F)C(C)CC)CCc2[nH]c3c(C(F)(F)F)cccc3c2C1)C(C)CC` (stereo partly drawn) [compound 173, (R)-3-{(S)-2-[2-(2-Fluoro-phenyl)-acetylamino]-3-methyl-pentanoylamino}-8-trifluoromethyl-2,3,4,9-tetrahydro-1H-carbazole-3-carboxylic acid {(S)-1-[(3-ethyl-thioureido)-methyl]-2-methyl-butyl}-amide], the Normalized microsomal stability was 285%.

Molecule `CCC(C)[C@H](NC(=O)Cc1ccccc1F)C(=O)N[C@]1(C(=O)N[C@H](C(=O)NCCCn2c[n+](C(C)(C)C)nn2)C(C)CC)CCc2[nH]c3c(C(F)(F)F)cccc3c2C1.O=C([O-])C(F)(F)F` (stereo partly drawn) [compound 188, 1-tert-butyl-4-(3-{(S)-2-[((R)-3-{(S)-2-[2-(2-fluoro-phenyl)-acetylamino]-3-methyl-pentanoylamino}-8-trifluoromethyl-2,3,4,9-tetrahydro-1H-carbazole-3-carbonyl)-amino]-3-methyl-pentanoylamino}-propyl)-4H-tetrazol-1-ium; Trifluoro-acetate] returned a Normalized microsomal stability of 1259%.

In turn, `CCC(C)[C@H](NC(=O)Cc1ccccc1F)C(=O)N[C@]1(C(=O)N[C@H](C(=O)NNC(N)=O)C(C)CC)CCc2[nH]c3c(C(F)(F)F)cccc3c2C1` (stereo partly drawn) [compound 164, (R)-3-{(S)-2-[2-(2-Fluoro-phenyl)-acetylamino]-3-methyl-pentanoylamino}-8-trifluoromethyl-2,3,4,9-tetrahydro-1H-carbazole-3-carboxylic acid [(S)-1-(N′-aminocarbonyl-hydrazinocarbonyl)-2-methyl-butyl]-amide] had a Normalized microsomal stability of 1230%.

With `CCC(C)[C@H](NC(=O)Cc1ccccc1F)C(=O)N[C@]1(C(=O)N[C@H](C(=O)NCc2cncnc2)C(C)CC)CCc2[nH]c3c(C(F)(F)F)cccc3c2C1` (stereo partly drawn) [compound 183], the Normalized microsomal stability worked out at 1350%.

The molecule `CCC(C)[C@H](NC(=O)Cc1ccncc1)C(=O)N[C@]1(C(=O)N[C@H](C(N)=S)C(C)CC)CCc2[nH]c3c(C(F)(F)F)cccc3c2C1` (stereo partly drawn) [compound 236, (R)-3-[(S)-3-Methyl-2-(2-pyridin-4-yl-acetylamino)-pentanoylamino]-8-trifluoromethyl-2,3,4,9-tetrahydro-1H-carbazole-3-carboxylic acid ((S)-2-methyl-1-thiocarbamoyl-butyl)-amide] gave a Normalized microsomal stability of 1328%.

For the molecule `CCC(C)[C@H](NC(=O)Cc1ccccc1F)C(=O)N[C@]1(C(=O)N[C@H](CNC(=S)NCc2ccncc2)C(C)CC)CCc2[nH]c3c(C(F)(F)F)cccc3c2C1` (stereo partly drawn) [compound 205, (R)-3-{(S)-2-[2-(2-Fluoro-phenyl)-acetylamino]-3-methyl-pentanoylamino}-8-trifluoromethyl-2,3,4,9-tetrahydro-1H-carbazole-3-carboxylic acid [(S)-2-methyl-1-(3-pyridin-4-ylmethyl-thioureidomethyl)-butyl]-amide], the Normalized microsomal stability turned out to be 800%.

`CCC(C)[C@H](NC(=O)Cc1ccccc1F)C(=O)N[C@]1(C(=O)N[C@H](C(=S)NCCCCn2cncn2)C(C)CC)CCc2[nH]c3c(C(F)(F)F)cccc3c2C1` (stereo partly drawn) [compound 114, (R)-3-{(S)-2-[2-(2-Fluoro-phenyl)-acetylamino]-3-methyl-pentanoylamino}-8-trifluoromethyl-2,3,4,9-tetrahydro-1H-carbazole-3-carboxylic acid [(S)-2-methyl-1-1(4-[1,2,4]triazol-1-ylbutylthiocarbamoyl)-butyl]-amide] yielded a Normalized microsomal stability of 537%.

For `CC[C@H](C)[C@H](NC(=O)Cc1ccccc1F)C(=O)N[C@]1(C(=O)N[C@H](c2nc(-c3ccc(OC)cc3)cs2)[C@@H](C)CC)CCc2[nH]c3c(C(F)(F)F)cccc3c2C1` [compound 250, (R)-3-{(2S,3S)-2-[2-(2-Fluoro-phenyl)-acetylamino]-3-methyl-pentanoylamino}-8-trifluoromethyl-2,3,4,9-tetrahydro-1H-carbazole-3-carboxylic acid {(1S,2S)-1-[4-(4-methoxy-phenyl)-thiazol-2-yl]-2-methyl-butyl}-ami], the Normalized microsomal stability was found to be 1491%.

`CCC(C)[C@H](NC(=O)Cc1ccccc1F)C(=O)N[C@]1(C(=O)N[C@H](C(=O)NCN2CCOCC2)C(C)CC)CCc2[nH]c3c(C(F)(F)F)cccc3c2C1` (stereo partly drawn) [Compound 36] showed a Normalized microsomal stability of 774%.
